molecular target: human adenosine A2b receptor (Homo sapiens (Human), UniProt P29275); assay: Cellular in vitro reporter gene test for A2b receptor activity (CHO-K1, CRE-luciferase, NECA stimulation); type: cell-based; conditions: recombinant CHO-K1 cell line, CRE-luciferase reporter, antagonism of EC50 concentration of NECA; in some cases means of several determinations, rounded to two significant figures; read-out: A2b receptor IC50
Procedure: B-1. Cellular In Vitro Tests for Determining A2b Receptor Activity and Adenosine Receptor Selectivity
In the case of the A2a and A2b cell lines, this is a minimal promoter having a plurality of cAMP-responsive elements (CRE). Stimulation of the Gs-coupled A2b or A2a receptors by NECA ultimately leads, via formation of cAMP, to CRE-dependent induction of luciferase expression, which is detected 3 hours after the start of the incubation with NECA using a detection solution in a suitable luminometer. For testing the antagonists, initially, in a pre-experiment, the concentration of NECA which, at the test day in question, results in half-maximum stimulation of luciferase expression (EC50 concentration) is determined. By joint incubation of this EC50 concentration of NECA with the substances to be tested, it is possible to determine their antagonistic activity.

human adenosine A2b receptor, sequence (P29275 whole entry): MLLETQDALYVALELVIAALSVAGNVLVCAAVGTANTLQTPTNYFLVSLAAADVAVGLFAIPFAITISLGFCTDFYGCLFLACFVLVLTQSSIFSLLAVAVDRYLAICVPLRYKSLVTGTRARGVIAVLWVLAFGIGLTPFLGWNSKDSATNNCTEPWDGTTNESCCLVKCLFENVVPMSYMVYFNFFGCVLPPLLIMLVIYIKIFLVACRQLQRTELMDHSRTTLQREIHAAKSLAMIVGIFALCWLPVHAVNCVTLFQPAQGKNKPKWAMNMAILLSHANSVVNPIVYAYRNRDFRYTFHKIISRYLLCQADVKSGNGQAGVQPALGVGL

| Structure (SMILES) | IC50 [nM] |
| --- | --- |
| CCn1c(=O)c2c(C)c(CN3CCCC3=O)sc2n(CCC(F)(F)F)c1=O [Example 4, 3-Ethyl-5-methyl-6-[(2-oxopyrrolidin-1-yl)methyl]-1-(3,3,3-trifluoropropyl)thieno[2,3-d]pyrimidine-2,4(1H,3H)-dione] | 5.2 |
| Cc1c(CN2CCNC(=O)C2=O)sc2c1c(=O)n(CC(F)(F)F)c(=O)n2CCC(F)(F)F [Example 122, 6-[(2,3-Dioxopiperazin-1-yl)methyl]-5-methyl-3-(2,2,2-trifluoroethyl)-1-(3,3,3-trifluoropropyl)thieno[2,3-d]pyrimidine-2,4(1H,3H)-dione] | 3.9 |
| COCCn1c(=O)c2c(C)c(CN3CCNC3=S)sc2n(CCOC)c1=O [Example 168, 1,3-Bis(2-methoxyethyl)-5-methyl-6-[(2-thioxoimidazolidin-1-yl)methyl]thieno[2,3-d]pyrimidine-2,4(1H,3H)-dione] | 15 |
| C=CCn1cnn(Cc2sc3c(c2C)c(=O)n(CC)c(=O)n3CCC(F)(F)F)c1=O [Example 110, 6-[(4-Allyl-5-oxo-4,5-dihydro-H-1,2,4-triazol-1-yl)methyl]-3-ethyl-5-methyl-1-(3,3,3-trifluoropropyl)thieno[2,3-d]pyrimidine-2,4(1H,3H)-dione] | 79 |
| CCn1c(=O)c2c(C)c(CN3CCN(C(C)C)C3=S)sc2n(CC2CCCO2)c1=O (racemic) [Example 175, 3-Ethyl-6-[(3-isopropyl-2-thioxoimidazolidin-1-yl)methyl]-5-methyl-1-(tetrahydrofuran-2-ylmethyl)thieno[2,3-d]pyrimidine-2,4(1H,3H)-dione] | 53 |
| COCCn1c(=O)n(CCC(F)(F)F)c(=O)c2c(C)c(CN3CCNC3=O)sc21 [Example 98, 1-(2-Methoxyethyl)-5-methyl-6-[(2-oxoimidazolidin-1-yl)methyl]-3-(3,3,3-trifluoropropyl)thieno[2,3-d]pyrimidine-2,4(1H,3H)-dione] | 130 |
| CCn1c(=O)c2c(C)c(CN3CCNC3=S)sc2n(CCCF)c1=O [Example 29, 3-Ethyl-1-(3-fluoropropyl)-5-methyl-6-[(2-thioxoimidazolidin-1-yl)methyl]thieno[2,3-d]pyrimidine-2,4(1H,3H)-dione] | 4.1 |
| Cc1c(CN2CCNC2=S)sc2c1c(=O)n(CC(F)(F)F)c(=O)n2CC1CCO1 (racemic) [Example 154, 5-Methyl-1-(oxetan-2-ylmethyl)-6-[(2-thioxoimidazolidin-1-yl)methyl]-3-(2,2,2-trifluoroethyl)thieno[2,3-d]pyrimidine-2,4(1H,3H)-dione] | 7.1 |
| Cc1c(CN2CCNC2=O)sc2c1c(=O)n(CC(C)(C)F)c(=O)n2CCC(F)(F)F [Example 225, 3-(2-Fluoro-2-methylpropyl)-5-methyl-6-[(2-oxoimidazolidin-1-yl)methyl]-1-(3,3,3-trifluoropropyl)thieno[2,3-d]pyrimidine-2,4(1H,3H)-dione] | 12 |
| COCCn1c(=O)n(CC(C)(C)F)c(=O)c2c(C)c(CN3CCNC3=O)sc21 [Example 226, 3-(2-Fluoro-2-methylpropyl)-1-(2-methoxyethyl)-5-methyl-6-[(2-oxoimidazolidin-1-yl)methyl]thieno[2,3-d]pyrimidine-2,4(1H,3H)-dione] | 36 |
| CCn1c(=O)c2c(C)c(CN3CCNC3=O)sc2n(CCN(C)C)c1=O [Example 83, 1-[2-(Dimethylamino)ethyl]-3-ethyl-5-methyl-6-[(2-oxoimidazolidin-1-yl)methyl]thieno[2,3-d]pyrimidine-2,4(1H,3H)-dione] | 380 |
| COCCn1c(=O)n(CC(C)OC)c(=O)c2c(C)c(CN3CCNC3=O)sc21 (single isomer, unassigned) [Example 235, 1-(2-Methoxyethyl)-3-(2-methoxypropyl)-5-methyl-6-[(2-oxoimidazolidin-1-yl)methyl]thieno[2,3-d]pyrimidine-2,4(1H,3H)-dione] | 38 |
| Cc1c(Cn2cc[nH]c2=O)sc2c1c(=O)n(C(C)C)c(=O)n2CC1CCCO1 (single isomer, unassigned) [Example 249, 3-Isopropyl-5-methyl-6-[(2-oxo-2,3-dihydro-1H-imidazol-1-yl)methyl]-1-(tetrahydrofuran-2-ylmethyl)thieno[2,3-d]pyrimidine-2,4(1H,3H)-dione] | 41 |
| CCn1c(=O)c2c(C)c(CN3CC[C@@H](O)C3=O)sc2n(CCOC)c1=O [Example 7, 3-Ethyl-6-{[(3R)-3-hydroxy-2-oxopyrrolidin-1-yl]methyl}-1-(2-methoxyethyl)-5-methylthieno[2,3-d]pyrimidine-2,4(1H,3H)-dione] | 33 |
| Cc1c(CN2CCNC2=NC#N)sc2c1c(=O)n(C(C)C)c(=O)n2CCC(F)(F)F [Example 262, [1-{[3-Isopropyl-5-methyl-2,4-dioxo-1-(3,3,3-trifluoropropyl)-1,2,3,4-tetrahydrothieno[2,3-d]pyrimidin-6-yl]methyl}imidazolidin-2-ylidene]cyanamide] | 2.3 |
| Cc1c(CN2CCNC2=O)sc2c1c(=O)n(C(C)C)c(=O)n2CC1CCCO1 (single isomer, unassigned) [Example 188, 3-Isopropyl-5-methyl-6-[(2-oxoimidazolidin-1-yl)methyl]-1-(tetrahydrofuran-2-ylmethyl)thieno[2,3-d]pyrimidine-2,4(1H,3H)-dione] | 40 |
| Cc1c(CN2CCNC2=S)sc2c1c(=O)n(CC(F)(F)F)c(=O)n2CC1CCO1 (single isomer, unassigned) [Example 156, 5-Methyl-1-(oxetan-2-ylmethyl)-6-[(2-thioxoimidazolidin-1-yl)methyl]-3-(2,2,2-trifluoroethyl)thieno[2,3-d]pyrimidine-2,4(1H,3H)-dione] | 5.7 |
| CCn1c(=O)c2c(C)c(CN3CCNC3=S)sc2n(CC2CCCCO2)c1=O (single isomer, unassigned) [Example 141, 3-Ethyl-5-methyl-1-(tetrahydro-2H-pyran-2-ylmethyl)-6-[(2-thioxoimidazolidin-1-yl)methyl]thieno[2,3-d]pyrimidine-2,4(1H,3H)-dione] | 120 |
| Cc1c(CN2CCNC2=S)sc2c1c(=O)n(CC(F)(F)F)c(=O)n2CCC(F)(F)F [Example 152, 5-Methyl-6-[(2-thioxoimidazolidin-1-yl)methyl]-3-(2,2,2-trifluoroethyl)-1-(3,3,3-trifluoropropyl)thieno[2,3-d]pyrimidine-2,4(1H,3H)-dione] | 0.79 |
| CCCn1c(=O)n(CC)c(=O)c2c(C)c(CN3CCNC3=O)sc21 [Example 77, 3-Ethyl-5-methyl-6-[(2-oxoimidazolidin-1-yl)methyl]-1-propylthieno[2,3-d]pyrimidine-2,4(1H,3H)-dione] | 5.6 |

Second part, the compound after the results:

| IC50 [nM] | Structure (SMILES) |
| --- | --- |
| 110 | COCCn1c(=O)n(CC2CCCO2)c(=O)c2c(C)c(CN3CCNC3=O)sc21 (racemic) [Example 332, 1-(2-Methoxyethyl)-5-methyl-6-[(2-oxoimidazolidin-1-yl)methyl]-3-(tetrahydrofuran-2-ylmethyl)thieno[2,3-d]pyrimidine-2,4(1H,3H)-dione] |
| 40 | CCOCCn1c(=O)c2c(C)c(CN3CCNC3=O)sc2n(CCOC)c1=O [Example 327, 3-(2-Ethoxyethyl)-1-(2-methoxyethyl)-5-methyl-6-[(2-oxoimidazolidin-1-yl)methyl]thieno[2,3-d]pyrimidine-2,4(1H,3H)-dione] |
| 25 | Cc1c(Cn2cc[nH]c2=O)sc2c1c(=O)n(CC(F)(F)F)c(=O)n2CC1CCCO1 (single isomer, unassigned) [Example 343, 5-Methyl-6-[(2-oxo-2,3-dihydro-1H-imidazol-1-yl)methyl]-1-(tetrahydrofuran-2-ylmethyl)-3-(2,2,2-trifluoroethyl)thieno[2,3-d]pyrimidine-2,4(1H,3H)-dione] |
| 3.1 | Cc1c(CN2CCNC2=NC#N)sc2c1c(=O)n(C(C)C)c(=O)n2CC1CCO1 (racemic) [Example 264, [1-{[3-Isopropyl-5-methyl-1-(oxetan-2-ylmethyl)-2,4-dioxo-1,2,3,4-tetrahydrothieno[2,3-d]pyrimidin-6-yl]methyl}imidazolidin-2-ylidene]cyanamide] |
| 220 | Cc1c(Cn2[nH]ccc2=O)sc2c1c(=O)n(CC(F)(F)F)c(=O)n2CC1CCCO1 (single isomer, unassigned) [Example 286, 5-Methyl-6-[(5-oxo-2,5-dihydro-1H-pyrazol-1-yl)methyl]-1-(tetrahydrofuran-2-ylmethyl)-3-(2,2,2-trifluoroethyl)thieno[2,3-d]pyrimidine-2,4(1H,3H)-dione] |
| 2.4 | Cc1c(CN2CCNC2=S)sc2c1c(=O)n(C(C)C)c(=O)n2CCCF [Example 298, 1-(3-Fluoropropyl)-3-isopropyl-5-methyl-6-[(2-thioxoimidazolidin-1-yl)methyl]thieno[2,3-d]pyrimidine-2,4(1H,3H)-dione] |
| 120 | Cc1c(CN2CCN(C(C)C)C(=O)C2=O)sc2c1c(=O)n(CC(C)C)c(=O)n2CCCF [Example 496, 1-(3-Fluoropropyl)-3-isobutyl-6-[(4-isopropyl-2.3-dioxopiperazin-1-yl)methyl]-5-methylthieno[2,3-d]pyrimidine-2,4(1H,3H)-dione] |
| 55 | Cc1c(Cn2nc[nH]c2=O)sc2c1c(=O)n(C(C)C)c(=O)n2CCCF [Example 423, 1-(3-Fluoropropyl)-3-isopropyl-5-methyl-6-[(5-oxo-4,5-dihydro-1H-1,2,4-triazol-1-yl)methyl]thieno[2,3-d]pyrimidine-2,4(1H,3H)-dione] |
| 140 | COCCn1c(=O)n(C(C)C)c(=O)c2c(C)c(CN3CCNC(=O)C3=O)sc21 [Example 479, 6-[(2,3-Dioxopiperazin-1-yl)methyl]-3-isopropyl-1-(2-methoxyethyl)-5-methylthieno[2,3-d]pyrimidine-2,4(1H,3H)-dione] |
